Test results as given in BigSolDB 2.1.

Br.c1ccc(NC2=NCCC3(CCCCC3)[Se]2)cc1
solubility (mole fraction) (in n-hexane, 293.15 K): 4.94e-06 | solubility (mole fraction) (in n-hexane, 298.15 K): 5.94e-06 | solubility (mole fraction) (in n-hexane, 303.15 K): 7.1e-06 | solubility (mole fraction) (in n-hexane, 308.15 K): 8.46e-06 | solubility (mole fraction) (in n-hexane, 313.15 K): 9.98e-06 | solubility (mole fraction) (in n-octanol, 293.15 K): 0.0186 | solubility (mole fraction) (in n-octanol, 298.15 K): 0.0229 | solubility (mole fraction) (in n-octanol, 303.15 K): 0.0278 | solubility (mole fraction) (in n-octanol, 308.15 K): 0.0329 | solubility (mole fraction) (in n-octanol, 313.15 K): 0.0385

Br.CC(C)c1ccc(NC2=NCCC3(CCCCC3)[Se]2)cc1
solubility (mole fraction) (in n-hexane, 293.15 K): 4.69e-06 | solubility (mole fraction) (in n-hexane, 298.15 K): 5.82e-06 | solubility (mole fraction) (in n-hexane, 303.15 K): 7.39e-06 | solubility (mole fraction) (in n-hexane, 308.15 K): 8.84e-06 | solubility (mole fraction) (in n-hexane, 313.15 K): 1.11e-05 | solubility (mole fraction) (in n-octanol, 293.15 K): 0.0484 | solubility (mole fraction) (in n-octanol, 298.15 K): 0.0551 | solubility (mole fraction) (in n-octanol, 303.15 K): 0.0647 | solubility (mole fraction) (in n-octanol, 308.15 K): 0.0728 | solubility (mole fraction) (in n-octanol, 313.15 K): 0.0831

Br.Fc1ccc(NC2=NCCC3(CCCCC3)[Se]2)cc1
solubility (mole fraction) (in n-hexane, 293.15 K): 1.27e-06 | solubility (mole fraction) (in n-hexane, 298.15 K): 1.59e-06 | solubility (mole fraction) (in n-hexane, 303.15 K): 1.9e-06 | solubility (mole fraction) (in n-hexane, 308.15 K): 2.35e-06 | solubility (mole fraction) (in n-hexane, 313.15 K): 2.89e-06 | solubility (mole fraction) (in n-octanol, 293.15 K): 0.003 | solubility (mole fraction) (in n-octanol, 298.15 K): 0.0036 | solubility (mole fraction) (in n-octanol, 303.15 K): 0.0042 | solubility (mole fraction) (in n-octanol, 308.15 K): 0.0048 | solubility (mole fraction) (in n-octanol, 313.15 K): 0.0055
